Counter-ions that a name gives are not always drawn.
Tests used:
[1] = compared with polymorphic Form A; cited from earlier work
[2] = solid state stability of the polymorphic forms; assay type: physicochemical

| stability in the solid state ([2]; higher temperatures of the order of 60°-120° C.) | stability in the solid state ([2]; room temperature (30°-35° C.)) | Structure (SMILES) | thermodynamic stability [1] |
| --- | --- | --- | --- |
| – | – | C#Cc1cccc(Nc2ncnc3cc(OCCOC)c(OCCOC)cc23)c1 [Form-B, Erlotinib HCl] | thermodynamically more stable |
| very stable | very stable | C#Cc1cccc(Nc2ncnc3cc(OCCOC)c(OCCOC)cc23)c1.Cl [Form-M, Erlotinib Hydrochloride] | – |

From patent publication US8748602B2, “Polymorphs of erlotinib hydrochloride and method of preparation” (Natco Pharma Limited, priority 2007, dated 2014)
